# Data reported in publication PMC7118210 (Frontiers in Pharmacology, 2020).
# Experiment: Multiple-dose pharmacokinetics in healthy humans
# Format: in vivo, human
# Procedure: Naringin and placebo tablets were identical in appearance and participants, care providers, and those assessing outcomes were blinded to the study drug assignment. Using the Statistical Analysis System (SAS) software (Version 9.4, SAS Institute Inc., Cary, NC, USA), subject randomization and blinding/masking were performed by statisticians from the Department of Health Statistics at the Second Military Medical University. […] Human urine samples were collected at −12~0, 0~4, 4~8, 8~12, 12~24, 24~36, 36~48, 48~60, and 60~72 h for the single-dose groups and −12~0 (Day1), −12~0 (Day7), 0~4, 4~8, 8~12, 12~24, 24~36, 36~48, 48~60, and 60~72 h (Day7) for the multiple-dose group with records of volume. Human feces were collected in storage boxes, weighed, and recorded from 12 h before administration to 72 h postadministration. […] The optimal volume and activity in unit volume of enzyme solution [0.2 M acetic acid/water solution: 0.2 M ammonium acetate/water solution, 15:35 (v/v)] were determined through a pretest of the enzyme (rat plasma, 10 μl, 10 U μl^-1; dog plasma, 10 μl, 10 U μl^-1; human plasma, 20 μl, 20 U μl^-1; human urine, 10 μl, 10 U μl^-1). After enzyme incubation, 10 μl of IS solution was added to the plasma and urine samples (2 μg ml^-1 quercetin 3-β-D-glucoside for rat and dog plasma; 583 ng ml^-1 naringin-D4 and 160 ng ml^-1 naringenin-D4 for human plasma; and 9,710 ng ml^-1 naringin-D4 and 6,000 ng ml^-1 naringenin-D4 for human urine). To each fecal sample, 9-fold methanol-normal saline (2:1, v/v) was added, mixed (18,000 rpm, 15 min) by vortexing and centrifuged (10 min, 9,000 rpm, 4°C). Next, 10 μl IS solution (971 ng ml^-1 naringin-D4 and 600 ng ml^-1 naringenin-D4) was added to the supernatants of feces (200 μl) without enzyme incubation. […] The solid material was dissolved with acetonitrile-water (1:1, v/v) and injected into the ultra high-performance liquid chromatography coupled with triple quadrupole mass spectrometry (UHPLC/MS/MS) system as described below. The analysis of nonclinical and clinical samples was performed with a UHPLC/MS/MS system that consisted of a Shimadzu Nexera X2 ultra high-performance liquid chromatography (UHPLC) (Shimadzu Corp., Kyoto, Japan) coupled with an AB Sciex API4000 triple-quadrupole mass spectrometry (MS/MS) system (AB Sciex, Foster City, CA, USA) equipped with an electrospray ionization source and controlled by Analyst (v. 1.6.2) software. […] The injection volume was 10 μl with the flow rate of 0.3 ml min^-1 for plasma, and 0.4 ml min^-1 for urine and feces. The compounds were detected by multiple reaction monitoring in the negative ion electrospray mode. The electrospray source conditions were as follows: ion source gas1 30 psi, ion source gas2 60 psi, curtain gas 20 psi, collisionally activated dissociation (CAD) gas 8 psi, temperature 500°C, and ion spray voltage −4,500 V. Zero air was used for ion source gas1 and ion source gas2 and nitrogen for curtain gas and CAD gas. […] All pharmacokinetic and excretion parameters were expressed as mean ± standard deviation (SD). All mean and SD values were reported to three significant figures. The pharmacokinetic parameters were calculated using the Phoenix WinNonlin software (Version 6.4, Pharsight Corp., Cary, NC, USA) and compared using the Student's t-test (p < 0.05) in SPSS 18.0 (SPSS Inc., Chicago, IL, USA). […] For the multiple-dose studies, pharmacokinetic parameters included the mean plasma level at steady state, Tmax, t1/2, the percent fluctuation, and the accumulation index (Table 3). […] In addition, we compared the pharmacokinetic parameters obtained from males and females (Tables 4–6).
# [1] = naringin 160 mg multiple dose, human, female
# [2] = naringin 160 mg multiple dose, human, male
# [3] = naringin 160 mg p.o. three times a day, multiple dose, human
accumulation in multiple-dose study (in vivo),Tmax [3],SMILES,CavSS [1],CavSS [2],CavSS [3],accumulation in multiple-dose study (humans),Fluctuation [1],Fluctuation [2],"Fluctuation (naringin 160 mg p.o. three times a day, multiple dose, human, (CmaxSS−CminSS)/CavSS×100%)"
no significant accumulation,5.83 ± 1.17 h,"O=C1C[C@@H](c2ccc(O)cc2)Oc2cc(O)cc(O)c21 [naringenin, Naringenin]",22.6 ± 8.42 ng/mL,47.2 ± 47 ng/mL,39 ± 38.7 ng/mL,–,–,–,–
–,–,"C[C@@H]1O[C@@H](O[C@H]2[C@H](Oc3cc(O)c4c(c3)O[C@H](c3ccc(O)cc3)CC4=O)O[C@H](CO)[C@@H](O)[C@@H]2O)[C@H](O)[C@H](O)[C@H]1O [naringin, Naringin]",1.74 ± 0.377 ng/mL,1.75 ± 0.403 ng/mL,1.75 ± 0.365 ng/mL,no significant accumulation,149 ± 37.5%,210 ± 79.6%,187 ± 70.7%
